pIC50: −log10 of the molar value. Where a name gives a salt, the structure may show the parent alone.
Key:
[1] = test system: xenograft tumor of human colon cancer GP2D; assay: Pharmacodynamics in vivo: Balb/c nude mouse subcutaneous xenograft of human colon cancer GP2D cells; conditions: PO, BID*20, 20th day
Procedure: A Balb/c nude mouse model of subcutaneously xenograft tumor of human colon cancer GP2D cell was established. 0.2 mL (2×10^6) of GP2D cells (Matrigel was added, and volume ratio was 1:1) were inoculated subcutaneously on the right back of each mouse. When the average tumor volume reached 149 mm^3, the administration was started by group, with 6 mice in each group. On the day of the assay, the animals were administered the corresponding drugs according to the corresponding groups. The first group G1 was set as a negative control group, which was given 5% DMSO+95%(10% HP-β-CD) alone by gavage administration. The second group G2 to the fourth group G4 were given compound 1 hydrochloride, and the dosage and protocol of administration were shown in Table 13.
During the assay, the body weight of animals and the tumor size were measured twice a week. Meanwhile clinical symptoms of animals were observed and recorded every day. Each administration was referenced to the most recent body weight of animals.
The length (a) and width (b) of a tumor were measured with a digital vernier caliper. The calculation formula of tumor volume (Tumor volume, TV) was: TV=a×b^2/2.

[2] = Plasma protein binding (PPB), equilibrium dialysis, cynomolgus monkey plasma; format: in vitro ADME; conditions: 2 μM, unbound rate
Procedure: (§1) The protein binding rates of the compound in the plasma of CD-1 mouse, Sprague-Dawley rat, Beagle dog, cynomolgus monkey and human were determined by equilibrium dialysis method.
(§2) The plasmas of the above-mentioned five species were formulated to plasma samples with a compound concentration of 2 μM. The plasma samples were placed in a 96-well rapid equilibrium dialysis device, and dialyzed against phosphate buffered saline at 37±1° C. for 4 h. In this assay, warfarin was used as a control compound. The concentrations of analytes in plasma and dialysis buffer were determined by LC-MS/MS mothed.

KRAS^G12D AsPC-1 = assay: Anti-cell proliferation effect in tumor cell line AsPC-1 (CellTiter-Glo 3D); format: cell-based; conditions: Homo sapiens, ASPC1, AsPC-1, 120 hours
Procedure: (§3) In this assay, the effect of the compounds on inhibiting cell proliferation was studied by detecting the effect of the compounds on the cell activity in vitro in the tumor cell lines AsPC-1 and GP2D.
(§4) The tumor cell lines were cultured in a 37° C., 5% CO2 incubator according to the culture conditions indicated in the culture method. Cells were passaged regularly, and cells in logarithmic growth phase were used for plating.
(§5) Cells were stained with trypan blue and viable cells were counted.
(§6) The cell concentration was adjusted to an appropriate concentration.
(§7) To each well of a ULA culture plate was added 135 μL of cell suspension. To the blank control well was added the same volume of culture medium without cells.
(§8) After plating, the ULA culture plate was immediately centrifuged at room temperature at 1000 rpm for 10 minutes. Note: After completion of the centrifugation, subsequent operations must be processed carefully to avoid unnecessary shocks.
(§9) The culture plate was incubated in a 37° C., 5% CO2, 100% relative humidity incubator overnight.
(§10) 10× compound working solution (10× working solution in DMSO) was formulated, and then to the ULA culture plate was add 15 μL of 10× compound working solution, and to the vehicle control and blank control was added 15 μL of DMSO-cell culture medium mixture, respectively. […]
(§11) The luminescent signal was detected on a 2104 EnVision plate reader. […]

[3] = Plasma protein binding (PPB), equilibrium dialysis, CD-1 mouse plasma; format: in vitro ADME; conditions: 2 μM, unbound rate
Procedure: as §1, §2

[4] = Plasma protein binding (PPB), equilibrium dialysis, Beagle dog plasma; format: in vitro ADME; conditions: 2 μM, unbound rate
Procedure: as §1, §2

KRAS^G12D GP2D = assay: Anti-cell proliferation effect in tumor cell line GP2D (CellTiter-Glo 3D); format: cell-based; conditions: 120 hours
Procedure: as §3, §4, §5, §6, §7, §8, §9, §10, §11

Cc1cc(N)c(F)c(C2Cc3nc(OC[C@@]45CCCN4C[C@H](F)C5)nc(N4CC5CCC(C4)N5)c3CO2)c1C(F)(F)F (some centres unmarked) [Compound 1 hydrochloride]
Tumor volume inhibition rate TGI (%) ([1]; G2, 3 mg/kg): 19.4%
Tumor volume inhibition rate TGI (%) ([1]; G3, 10 mg/kg): 53.9%
Tumor volume inhibition rate TGI (%) ([1]; G4, 30 mg/kg): 83.7%
Unbound PPB C [2]: 6.3%
pIC50 (KRAS^G12D AsPC-1): 6.50
Unbound PPB M [3]: 2.7%
Unbound PPB D [4]: 5.2%
pIC50 (KRAS^G12D GP2D): 7.43
